Measured values reported in patent US20130029981A1, “COMPOUNDS, COMPOSITIONS, AND METHODS FOR CONTROLLING BIOFILMS” (Katholieke Universiteit Leuven, priority 2009, published 2013).
Where two headings read alike, the source gives them in different places.

Columns and labels:
[1] = tested on: Salmonella Typhimurium ATCC 14028; assay: Antibacterial activity: growth inhibition, OD600 after 24 h (GIC50); format: cell-based
Description: Evaluation of antibacterial-inhibitory activity of some substituted 2-amino-1H-imidazoles of the invention was carried out by diluting an overnight culture of Salmonella Typhimurium ATCC 14028 into a liquid medium. 200 μl of the diluted overnight culture was added to each well of a microtiter plate together with different concentrations of the test compound (1/2 dilution series of the compound). After an incubation of 24 hours the optical density at 600 nm of each well was determined with a microtiter plate reader.
Starting from a 40 mM stock solution of each compound in DMSO, two-fold serial dilutions in 100 μl liquid broth per well were prepared in dublicate in sterile transparant microtiter plates. The broth used was TSB 1/20 for measurements at 25° C. and CFA (in case of Salmonella Typhimurium) and LBNS (in case of Pseudomonas aeruginosa) for measurements at 37° C. Subsequently an overnight culture of the bacteria (S. Typhimurium ATCC14028 or P. aeruginosa PA14) was diluted 1/200 into the corresponding liquid broth and 100 μl was added to each well of the microtiterplate resulting in a total amout of 200 μl medium per well. After an incubation of 24 hours the optical density at 600 nm of each well was determined with a microtiter plate reader (VERSAmax, Molecular Devices).
Evaluation of antibacterial-inhibitory activity of some substituted imidazo[1,2-a]pyrimidinium bromide salts of the invention was carried out by diluting an overnight culture of Salmonella Typhimurium ATCC14028 or Pseudomonas aeruginosa PA141/200 into liquid medium. 200 μl of the diluted overnight culture was added to each well of a microtiterplate together with different concentrations of the test compound (1/2 dilution series of the compound). After an incubation of 24 hours the optical density at 600 nm of each well was determined with a microtiter plate reader.

[2] = tested on: Pseudomonas aeruginosa PA14; assay: Static peg assay for prevention of biofilm formation (Calgary device, crystal violet); format: cell-based
Outline: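 P. aeruginosa PA14 overnight TSB culture diluted 1:100 into broth with two-fold compound dilutions, biofilms grown 24 h static on polystyrene pegs of a Calgary device at 25 °C (TSB 1/20), 30 °C or 37 °C (CFA and/or LBNS). Biofilm quantified by crystal violet, extracted with 30% acetic acid, A570.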

[3] = tested on: S. Typhimurium ATCC14028; assay: as above; format: cell-based, Salmonella Typhimurium
Outline: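 Calgary 96-peg device, ca. 10^6 cells of ATCC14028 per well in TSB 1/20 for 24 h at 25° C (or 48 h at 16° C, medium and compound renewed at 24 h), or in CFA broth for 24 h at 37° C, static, with two-fold compound dilutions. Crystal violet stain, acetic acid extraction, OD570. IC50 from 2–3 independent experiments.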

[4] = tested on: S. Typhimurium ATCC14028; assay: Bioscreen assay: influence on planktonic growth curve; format: cell-based, Salmonella Typhimurium; set-up: key: x: no influence on the planktonic growth at the IC50 for biofilm inhibition; ∘: planktonic growth is retarded at the IC50 for biofilm inhibition; conditions: planktonic growth at the IC50 for biofilm inhibition, 25° C.
From the text: (§1) Some of the tested compounds show a concentration range in which biofilm formation is inhibited but no effect on planktonic growth is observed. These compounds are particularly interesting for prevention of biofilm formation since the development of resistance against these compounds is less likely. Table 8 indicates whether the different compounds have an effect on the planktonic growth of the bacteria at the IC50 for biofilm inhibition. To construct Table 8, the effect of the tested compounds on the growth curve of the bacteria was determined at a concentration equal to the IC50 for biofilm inhibition, by using the Bioscreen system available from Oy Growth Curves Ab Ltd). The Bioscreen device from Oy Growth Curves Ab Ltd was used for measuring the influence of the chemical compounds on the planktonic growth of Salmonella Typhimurium and Pseudomonas aeruginosa. The Bioscreen is a computer controlled incubator/reader/shaker that uses 10×10 well microtiter plates and measures light absorbance of each well at a specified wave length in function of time. An overnight culture of S. […] The broth used was TSB 1/20 for the experiments at 16° C. and 25° C. For experiments at 37° C. CFA medium was used for S. […] As a control 3 μl of the appropriate solvent (DMSO or EtOH) was also added to the plate in 3- or 4-fold. The microtiter plate was incubated in the Bioscreen device at 16° C., 25° C. or 37° C. for at least 36 hours, with continious medium shaking. The absorbance of each well was measured at 600 nm each 15 minutes. Excel was used to generate the growth curves for treated the treated wells and the untreated control wells. Some of the compounds show a concentration range in which biofilm formation is inhibited but no effect on the planktonic growth is observed. Table 14 indicates if the different compounds have an effect on the planktonic growth of the bacteria at the IC50 for biofilm inhibition. To construct this table the effect of the compounds on the growth curve of the bacteria was determined at a concentration equal to the IC50 for biofilm inhibtion, by using the Bioscreen system from Oy Growth Curves Ab Ltd.

[5] = tested on: S. Typhimurium ATCC14028; assay: as above; format: cell-based, Salmonella Typhimurium; conditions: 40 μM; for Effect on growth at: 40 μM (S. Typhimurium): planktonic growth, 25° C.
From the text: as §1

[6] = tested on: S. Typhimurium SL1344; assay: Static peg assay for prevention of biofilm formation (Calgary device, crystal violet); format: cell-based; conditions: Salmonella enterica, SL1344, 16° C., read-out: IC50 biofilm inhibition
Description: After an incubation period of 24 hours at 25° C. or 37° C. or 48 hours at 16° C. the biofilms were visualized by crystal violet staining. […] Biofilm formation assays were carried out at 16° C., 25° C. and 37° C. […] Subsequently, an overnight culture of S. […] The pegged lid was placed on the microtiter plate and the plate was incubated for 48 hours at 16° C. or for 24 hours at 25° C. without shaking. During this incubation period biofilms were formed on the surface of the pegs. In case of the assay at 16° C., after 24 hours the lid was transferred into a new plate with medium and the specific molecules used for testing. […] The remaining attached bacteria were stained for 30 minutes with 200 μl 0.1% (w/v) crystal violet in an isopropanol/methanol/PBS solution (v/v 1:1:18). Excess stain was rinsed off by placing the pegs in a 96-well plate filled with 200 μl distilled water per well. After the pegs were air dried (30 min), the dye bound to the adherent cells was extracted with 30% glacial acetic acid (200 μl). The OD570 of each well was measured using the VERSAmax microtiter plate reader.

[7] = tested on: S. Typhimurium SL1344; assay: Growth inhibition of planktonic cells in the peg assay plate (OD600); format: cell-based; conditions: Salmonella enterica, SL1344, 16° C.
[8] = tested on: S. Typhimurium ATCC14028; assay: as above; format: cell-based, Salmonella Typhimurium; conditions: Salmonella enterica, ATCC14028, 16° C.
[9] = OD600 after 24 hours of growth, read-out: GIC(50)
[10] = S. Typhimurium ATCC 14028, 25° C., read-out: IC50 for biofilm inhibition (25° C.)
[11] = 25° C., Table 11, read-out: IC50 (biofilm formation)
[12] = 25° C., Table 14, read-out: IC50 biofilm inhibition
[13] = 25° C., Table 19, read-out: IC50 (biofilm formation)
[14] = P. aeruginosa PA14, 25° C., read-out: P. aeruginosa IC50 (biofilm formation)
[15] = S. Typhimurium ATCC 14028, 25° C., read-out: S. Typhimurium IC50 (biofilm formation)
[16] = Salmonella enterica, 25° C., Table 11, read-out: IC50 (biofilm formation)
[17] = Salmonella enterica, 25° C., Table 14, read-out: IC50 biofilm inhibition
[18] = Salmonella enterica, ATCC14028, 16° C., read-out: IC50 biofilm inhibition

Structure (SMILES): Clc1ccc(-c2c[nH]c(NC3CCCC3)n2)cc1Cl
- IC50 [1, 9]: 50 µM
- IC50 ([2]; P. aeruginosa PA14, 25° C., read-out: IC50 for biofilm inhibition (25° C.)): 1 µM
- IC50 [3, 10]: 6 µM

Structure (SMILES): OC1(c2ccc(Cl)cc2)C[n+]2cccnc2N1C1CC1 (centres unmarked) [Compound 61]
- IC50 ([1]; 25° C.): 100 to 200 µM
- IC50 ([2]; 25° C., Table 18, read-out: P. aeruginosa IC50 (biofilm formation)): 179 µM
- IC50 [3, 11]: 120 µM
- IC50 [3, 12]: 120 µM
- IC50 ([3]; 25° C., Table 18, read-out: S. Typhimurium IC50 (biofilm formation)): 82.7 µM

Structure (SMILES): COc1cccc(CCN2c3nccc[n+]3CC2(O)c2ccc(Cl)c(Cl)c2)c1.[Br-] (centres unmarked) [Compound 77]
- Influence on growth [4]: x
- Effect on growth at 40 μM [5]: ∘
- IC50 [3, 11]: 7.39 µM
- IC50 [3, 12]: 7.39 µM
- IC50 [3, 13]: 7.23 µM

Structure (SMILES): OC1(c2ccc3c(c2)OCO3)C[n+]2cccnc2N1Cc1ccc2c(c1)OCO2 (centres unmarked) [Compound 80]
- IC50 ([1]; 25° C.): 100 to 200 µM
- IC50 [3, 11]: 102 µM
- IC50 [3, 12]: 102 µM
- IC50 [3, 13]: 53.7 µM

Structure (SMILES): Nc1nc(-c2ccc([N+](=O)[O-])cc2)c[nH]1 [Compound 90]
- IC50 [2, 14]: 34.5 µM
- Effect on growth at: 40 μM (S. Typhimurium) [5]: ∘
- IC50 [3, 15]: 17.6 µM

Structure (SMILES): CCCCCNc1ncc(-c2ccc(Cl)c(Cl)c2)[nH]1 [Compound 110]
- IC50 [2, 14]: 0.7 µM
- Effect on growth at: 40 μM (S. Typhimurium) [5]: ∘
- IC50 [3, 15]: 2.2 µM

Structure (SMILES): Clc1ccc(-c2cnc(NCc3ccccc3)[nH]2)cc1 [Compound 127]
- IC50 [1, 9]: 100 µM
- IC50 ([2]; 25° C., Table 22, read-out: P. aeruginosa IC50 (biofilm formation)): 26.3 µM
- IC50 ([3]; 25° C., Table 22, read-out: S. Typhimurium IC50 (biofilm formation)): 30.7 µM
- IC50 [3, 10]: 31 µM

Structure (SMILES): COc1ccc(CCN2c3nccc[n+]3CC2(O)c2ccc([N+](=O)[O-])cc2)cc1OC (centres unmarked) [R1=2-(3,4-diMeO—Ph)Et, R3=4-NO2-Ph, R4=H, 1-(2-(3,4-dimethoxyphenyl)ethyl)-2-hydroxy-2-(4-nitrophenyl)-2,3-dihydro-1H-imidazo-[1,2-a]pyrimidin-4-ium bromide]
- IC50 ([1]; Salmonella enterica, 25° C.): 100 to 200 µM
- IC50 [3, 16]: 127 µM
- IC50 [3, 17]: 127 µM

Structure (SMILES): COc1ccc(C2(O)C[n+]3cccnc3N2C2CCCCC2)cc1 (centres unmarked) [R1=Cyclohexyl, R3=4-MeO—Ph, R4=H, 1-cyclohexyl-2-hydroxy-2-(4-methoxyphenyl)-2,3-dihydro-1H-imidazo[1,2-a]pyrimidin-4-ium bromide]
- IC50 ([1]; Salmonella enterica, 25° C.): 50 to 100 µM
- IC50 [3, 16]: 112 µM
- IC50 [3, 17]: 112 µM

Structure (SMILES): CSc1ccc(C2(O)C[n+]3cccnc3N2C2CCCCC2)cc1 (centres unmarked) [R1=Cyclohexyl, R3=4-MeS—Ph, R4=H, 1-cyclohexyl-2-hydroxy-2-(4-methylthiophenyl)-2,3-dihydro-1H-imidazo[1,2-a]pyrimidin-4-ium bromide]
- IC50 ([1]; Salmonella enterica, 25° C.): 100 to 200 µM
- IC50 [3, 16]: 118 µM
- IC50 [3, 17]: 118 µM

Structure (SMILES): OC1(c2ccc(Br)cc2)C[n+]2cccnc2N1C1CC1.[Br-] (centres unmarked) [R1=Cyclopropyl, R3=4-Br—Ph, R4=H, 1-cyclopropyl-2-hydroxy-2-(4-bromophenyl)-2,3-dihydro-1H-imidazo[1,2-a]-pyrimidin-4-ium bromide]
- IC50 ([1]; Salmonella enterica, 25° C.): 25 to 50 µM
- Influence on growth [4]: x
- IC50 [3, 16]: 27 µM
- IC50 [3, 17]: 27 µM

Structure (SMILES): Brc1ccc(-c2c[nH]c(NC3CCCC3)n2)cc1 [R1=H, R2=cyclopentyl, R3=H, R4=p-Br—Ph]
- IC50 [1, 9]: 50 to 100 µM

Structure (SMILES): Clc1ccc(-c2c[nH]c(NC3CCCC3)n2)cc1 [R1=H, R2=cyclopentyl, R3=H, R4=p-Cl—Ph]
- IC50 [1, 9]: 45 µM
- IC50 [3, 10]: 4 µM

Structure (SMILES): CC1[n+]2cccnc2N(c2ccccc2)C1(O)c1ccc(Br)cc1 (centres unmarked) [R1=Ph, R3=4-Br—Ph, R4=Me, 1-phenyl-2-hydroxy-2-(4-bromophenyl)-3-methyl-2,3-dihydro-1H-imidazo[1,2-a]pyrimidin-4-ium bromide]
- IC50 ([1]; Salmonella enterica, 25° C.): 50 to 100 µM
- IC50 [3, 16]: 57.5 µM
- IC50 [3, 17]: 57.5 µM

Structure (SMILES): CCCCN1c2nccc[n+]2CC1(O)C(c1ccccc1)c1ccccc1 (centres unmarked) [R1=n-butyl, R3=dimethylphenyl, R4=H, 1-butyl-2-hydroxy-2-(diphenyl-methyl)-2,3-dihydro-1H-imidazo[1,2-a]pyrimidin-4-ium bromide]
- IC50 ([1]; Salmonella enterica, 25° C.): 50 to 100 µM
- IC50 [3, 17]: 72.1 µM

Structure (SMILES): c1ccc(Sc2ccc3c(c2)OCO3)c(CNC2=NCCN2)c1 [Specs3-1]
- IC50 [6]: ~65.9 µM
- IC50 [7]: 417 µM
- IC50 [8]: 417 µM
- IC50 [3, 18]: 42 µM

Structure (SMILES): Fc1ccccc1Sc1ccccc1CNC1=NCCN1 [Specs3-3]
- IC50 [6]: 68.1 µM
- IC50 [7]: 265 µM
- IC50 [8]: 265 µM
- IC50 [3, 18]: 32.9 µM
